Laboratory results published in patent publication US6635459B1, “Nucleotide sequences encoding pinoresinol/lariciresinol reductase proteins and their methods of use” (Washington State University Research Foundation, priority 1996, dated 2003).

Columns and labels:
cAMP-phosphodiesterase = details: cited from earlier work
[1] = biological target: 36 kDa form of (+)-pinoresinol/(+)-lariciresinol reductase (Forsythia x intermedia, UniProt P93143); experiment: Initial velocity studies, reductase 36 kDa isoform; details: 36 kDa form of the enzyme; NADPH 80 μM, pH 7.4, 30° C.
Method: (§1) Kinetic Parameters. […] The initial velocity studies were carried out individually utilizing the two isoforms of the enzyme, and individually employing both (+)-pinoresinol and (+)-lariciresinol as substrates. Initial velocity studies were performed in triplicate experiments, using 50 mM Bis-Tris Propane buffer, pH 7.4 containing 5 mM dithiothreitol, pure enzyme (after MonoQ anion-exchange chromatography), ten different substrate concentrations (between 8.8 and 160 μM) at a constant NADPH concentration (80 μM). Incubations were carried out at 30° C. for 10 min (within the linear kinetic range). Kinetic parameters were determined from Lineweaver-Burk plots.

[2] = biological target: T1, 35 kDa form of (+)-pinoresinol/(+)-lariciresinol reductase (Forsythia intermedia, UniProt P93143); experiment: Initial velocity studies, reductase 35 kDa isoform; assay type: biochemical; details: 35 kDa form of the enzyme; NADPH 80 μM, pH 7.4, 30° C.
T1 construct: pure enzyme (after MonoQ anion-exchange chromatography); from tissue; host or cells: Forsythia intermedia stems
T1 sequence (P93143 2-312): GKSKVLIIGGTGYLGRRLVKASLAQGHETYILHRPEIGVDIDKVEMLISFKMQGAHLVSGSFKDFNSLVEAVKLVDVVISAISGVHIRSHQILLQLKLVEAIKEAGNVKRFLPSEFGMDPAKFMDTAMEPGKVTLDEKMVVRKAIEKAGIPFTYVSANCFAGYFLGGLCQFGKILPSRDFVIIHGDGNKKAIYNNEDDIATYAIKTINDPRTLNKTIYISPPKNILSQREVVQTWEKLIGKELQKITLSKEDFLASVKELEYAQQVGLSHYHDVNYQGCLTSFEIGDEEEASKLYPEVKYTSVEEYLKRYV
Method: as §1

(±)-pinoresinols = experiment: Substrate specificity of recombinant Thuja plicata reductases expressed in E. coli; assay type: biochemical; details: β-galactosidase fusion in E. coli total protein extract, 3 hour incubation at 30° C.

COc1cc(C[C@H]2COC(=O)[C@@H]2Cc2ccc(O)c(OC)c2)ccc1O [matairesinol]
cAMP-phosphodiesterase inhibition (cAMP-phosphodiesterase): inhibit cAMP-phosphodiesterase

(+)-pinoresinol
Km [1]: 23 ± 1.3 µM
Vmax (apparent maximum velocity) [1]: 17.3±0.5 μmol h^−1 mg^−1 of protein
Km [2]: 27 ± 1.5 µM
Vmax (apparent maximum velocity) [2]: 16.2±0.4 μmol h^−1 mg^−1 of protein

B1: plr-Tp2: Thuja plicata (+)-pinoresinol/(+)-lariciresinol reductase (SEQ ID NO:64) expressed in E. coli (protein)
chain: MEESSRVLIVGGTGYIGRRIVKASIALGHPTFILFRKEVVSDVEKVEMLLSFKKNGAKLLEASFDDHESLVDAVKQVDVVISAVAGNHMRHHILQQLKLVEAIKEAGNIKRFVPSEFGMDPGLMEHAMAPGNIVFIDKIKVREAIEAASIPHTYISANIFAGYLVGGLAQLGRVMPPSEKVILYGDGNVKAVWVDEDDVGIYTIKAIDDPHTLNKTMYIRPPLNILSQKEVVEKWEKLSGKSLNKINISVEDFLAGMEGQSYGEQIGISHFYQMFYRGDLYNFEIGPNGVEASQLYPEVKYTTVDSYMERYL
substrate specificity ((±)-pinoresinols): same substrate specificity and product formation as the original Forsythia intermedia reductase

B2: plr-Tp1: Thuja plicata (−)-pinoresinol/(−)-lariciresinol reductase (SEQ ID NO:62) expressed in E. coli (protein)
chain: MDKKSRVLIVGGTGYIGKRIVNASISLGHPTYVLFRPEVVSNIDKVQMLLYFKQLGAKLIEASLDDHQRLVDALKQVDVVISALAGGVLSHHILEQLKLVEAIKEAGNIKRFLPSEFGMDPDIMEHALQPGSITFIDKRKVRRAIEAASIPYTYVSSNMFAGYFAGSLAQLDGHMMPPRDKVLIYGDGNVKGIWVDEDDVGTYTIKSIDDPQTLNKTMYIRPPMNILSQKEVIQIWERLSEQNLDKIYISSQDFLADMKDKSYEEKIVRCHLYQIFFRGDLYNFEIGPNAIEATKLYPEVKYVTMDSYLERYV
substrate specificity ((±)-pinoresinols): can use both (−)-pinoresinol and (+)-pinoresinol as substrates
